Laboratory results from publication PMC7490411 (Signal Transduction and Targeted Therapy, 2020).

Legend:
[1] = system: 468 kinases/mutants; assay: KINOMEscan kinome-wide selectivity profiling; assay type: binding; conditions: 1 μM
Text: Here, we report the discovery of a novel covalent BTK inhibitor, CHMFL-BTK-85 (abbreviated as compd. 85) (chemical structure shown in Fig. 1a), which achieves high potency against BTK and selectivity over other protein kinases. […] To further confirm that compd. 85 could covalently bind to wide-type native BTK in cell, we then conducted a target-engagement assay using the biotinylated analog of compd. 85, i.e., CHMFL-BTK-85B (Supplementary Fig. S2), in REC-1 cell which expresses native BTK kinase. […] To further investigate the selectivity of compd. 85 in the kinome, we then tested it among 468 kinases/mutants with KINOMEscan^TM technology.

[2] = system: SK-OV-3 cells; assay: NK-cell-mediated ADCC, LDH release cytotoxicity assay, Herceptin; assay type: cell-based, human
Procedure: The cytotoxicity of NK cells was measured using the CyQUANT™ LDH Cytotoxicity Assay Kit (Invitrogen™, #C20300) according to the manufacturer’s instructions. Briefly, enriched NK cells (6 × 10^5 /ml) were cultured with the same volume of Mino cell and SK-OV-3 cell (1-2 × 10^4 /ml) in a 96-well plate for 4 h with Rituximab and Herceptin (10 μg/mL) and CHMFL-BTK-85 or PCI32765 at 37°C in a humidified CO2 incubator prior to removal of the supernatant for lactate dehydrogenase (LDH) release measurements. Calculate % Cytotoxicity by using the following formula: %Cytotoxicity = (Compound-treated LDH activity-Spontaneous LDH activity)/(Maximum LDH activity-Spontaneous LDH activity)*100.

[3] = system: ABL1(E255K)-phosphorylated; assay: KINOMEscan; assay type: binding; conditions: 1000 nM
[4] = system: ABL1(F317I)-nonphosphorylated; assay: KINOMEscan; assay type: binding; conditions: 1000 nM
[5] = system: BMPR1B; assay: KINOMEscan; assay type: binding; conditions: 1000 nM
[6] = system: CAMK4; assay: KINOMEscan; assay type: binding; conditions: 1000 nM
[7] = system: CAMKK1; assay: KINOMEscan; assay type: binding; conditions: 1000 nM
[8] = system: CDC2L2; assay: KINOMEscan; assay type: binding; conditions: 1000 nM
[9] = system: CDK9; assay: KINOMEscan; assay type: binding; conditions: 1000 nM
[10] = system: CHEK1; assay: KINOMEscan; assay type: binding; conditions: 1000 nM
[11] = system: CIT; assay: KINOMEscan; assay type: binding; conditions: 1000 nM
[12] = system: CSNK1D; assay: KINOMEscan; assay type: binding; conditions: 1000 nM
[13] = target: T1, EGFR (Homo sapiens, UniProt P00533); assay: KINOMEscan; assay type: binding; conditions: 1000 nM
T1 construct: purchased Invitrogen (Carlsbad, CA, USA)
T1 sequence (P00533 25-1210): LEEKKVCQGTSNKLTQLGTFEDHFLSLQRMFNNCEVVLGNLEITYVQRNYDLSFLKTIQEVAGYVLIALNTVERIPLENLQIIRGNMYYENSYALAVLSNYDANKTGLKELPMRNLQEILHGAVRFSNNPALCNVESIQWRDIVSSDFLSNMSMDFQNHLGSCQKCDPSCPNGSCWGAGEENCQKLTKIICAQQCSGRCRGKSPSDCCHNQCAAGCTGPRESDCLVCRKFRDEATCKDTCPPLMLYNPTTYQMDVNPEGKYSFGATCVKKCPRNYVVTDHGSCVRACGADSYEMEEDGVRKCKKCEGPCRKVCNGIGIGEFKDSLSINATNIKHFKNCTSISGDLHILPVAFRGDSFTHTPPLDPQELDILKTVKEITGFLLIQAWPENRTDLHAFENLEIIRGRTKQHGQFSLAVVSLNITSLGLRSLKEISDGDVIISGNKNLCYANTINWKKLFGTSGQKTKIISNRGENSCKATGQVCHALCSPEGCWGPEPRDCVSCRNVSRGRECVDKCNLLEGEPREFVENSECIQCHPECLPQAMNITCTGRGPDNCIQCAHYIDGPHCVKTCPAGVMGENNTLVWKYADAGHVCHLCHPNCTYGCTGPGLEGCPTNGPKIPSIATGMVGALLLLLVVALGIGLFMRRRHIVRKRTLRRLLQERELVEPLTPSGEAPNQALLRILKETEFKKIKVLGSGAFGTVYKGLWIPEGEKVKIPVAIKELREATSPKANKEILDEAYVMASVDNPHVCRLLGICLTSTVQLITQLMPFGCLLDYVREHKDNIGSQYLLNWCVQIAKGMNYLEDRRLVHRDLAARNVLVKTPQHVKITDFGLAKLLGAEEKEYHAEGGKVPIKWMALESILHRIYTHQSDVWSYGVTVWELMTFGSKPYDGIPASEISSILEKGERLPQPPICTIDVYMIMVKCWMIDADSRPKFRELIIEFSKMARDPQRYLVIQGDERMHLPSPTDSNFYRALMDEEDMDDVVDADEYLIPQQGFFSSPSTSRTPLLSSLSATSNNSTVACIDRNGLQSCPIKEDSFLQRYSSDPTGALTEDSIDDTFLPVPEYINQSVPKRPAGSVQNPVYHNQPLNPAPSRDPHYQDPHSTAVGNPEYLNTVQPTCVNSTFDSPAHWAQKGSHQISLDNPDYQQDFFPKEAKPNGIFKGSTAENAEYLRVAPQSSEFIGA

[14] = system: EGFR(L861Q); assay: KINOMEscan; assay type: binding; conditions: 1000 nM
[15] = system: EPHB4; assay: KINOMEscan; assay type: binding; conditions: 1000 nM
[16] = system: FGFR2; assay: KINOMEscan; assay type: binding; conditions: 1000 nM
[17] = system: FLT3(ITD); assay: KINOMEscan; assay type: binding; conditions: 1000 nM
[18] = system: FLT3(K663Q); assay: KINOMEscan; assay type: binding; conditions: 1000 nM
[19] = system: FLT3(N841I); assay: KINOMEscan; assay type: binding; conditions: 1000 nM
[20] = system: GRK3; assay: KINOMEscan; assay type: binding; conditions: 1000 nM
[21] = system: HUNK; assay: KINOMEscan; assay type: binding; conditions: 1000 nM
[22] = system: KIT(V559D,V654A); assay: KINOMEscan; assay type: binding; conditions: 1000 nM
[23] = system: LRRK2(G2019S); assay: KINOMEscan; assay type: binding; conditions: 1000 nM
[24] = system: MAP3K15; assay: KINOMEscan; assay type: binding; conditions: 1000 nM
[25] = system: MAPKAPK5; assay: KINOMEscan; assay type: binding; conditions: 1000 nM
[26] = system: MARK2; assay: KINOMEscan; assay type: binding; conditions: 1000 nM
[27] = system: MKK7; assay: KINOMEscan; assay type: binding; conditions: 1000 nM
[28] = system: MUSK; assay: KINOMEscan; assay type: binding; conditions: 1000 nM
[29] = system: NEK1; assay: KINOMEscan; assay type: binding; conditions: 1000 nM
[30] = system: PAK2; assay: KINOMEscan; assay type: binding; conditions: 1000 nM
[31] = system: PAK6; assay: KINOMEscan; assay type: binding; conditions: 1000 nM
[32] = system: PFPK5(P.falciparum); assay: KINOMEscan; assay type: binding; conditions: 1000 nM
[33] = system: PIK3CA(H1047L); assay: KINOMEscan; assay type: binding; conditions: 1000 nM
[34] = system: PIM3; assay: KINOMEscan; assay type: binding; conditions: 1000 nM
[35] = system: PKN2; assay: KINOMEscan; assay type: binding; conditions: 1000 nM
[36] = system: PRKCD; assay: KINOMEscan; assay type: binding; conditions: 1000 nM
[37] = system: PRKCE; assay: KINOMEscan; assay type: binding; conditions: 1000 nM
[38] = system: PRKCQ; assay: KINOMEscan; assay type: binding; conditions: 1000 nM
[39] = system: RIOK1; assay: KINOMEscan; assay type: binding; conditions: 1000 nM
[40] = system: RSK3(Kin.Dom.1-N-terminal); assay: KINOMEscan; assay type: binding; conditions: 1000 nM
[41] = system: SBK1; assay: KINOMEscan; assay type: binding; conditions: 1000 nM
[42] = system: SgK110; assay: KINOMEscan; assay type: binding; conditions: 1000 nM
[43] = system: SGK3; assay: KINOMEscan; assay type: binding; conditions: 1000 nM
[44] = system: SRPK2; assay: KINOMEscan; assay type: binding; conditions: 1000 nM
[45] = system: STK33; assay: KINOMEscan; assay type: binding; conditions: 1000 nM
[46] = system: TAOK3; assay: KINOMEscan; assay type: binding; conditions: 1000 nM
[47] = target: T2, TXK (Homo sapiens, UniProt P42681); assay: KINOMEscan; assay type: binding; conditions: 1000 nM
T2 construct: purchased Invitrogen (Carlsbad, CA, USA)
T2 sequence (P42681 whole entry): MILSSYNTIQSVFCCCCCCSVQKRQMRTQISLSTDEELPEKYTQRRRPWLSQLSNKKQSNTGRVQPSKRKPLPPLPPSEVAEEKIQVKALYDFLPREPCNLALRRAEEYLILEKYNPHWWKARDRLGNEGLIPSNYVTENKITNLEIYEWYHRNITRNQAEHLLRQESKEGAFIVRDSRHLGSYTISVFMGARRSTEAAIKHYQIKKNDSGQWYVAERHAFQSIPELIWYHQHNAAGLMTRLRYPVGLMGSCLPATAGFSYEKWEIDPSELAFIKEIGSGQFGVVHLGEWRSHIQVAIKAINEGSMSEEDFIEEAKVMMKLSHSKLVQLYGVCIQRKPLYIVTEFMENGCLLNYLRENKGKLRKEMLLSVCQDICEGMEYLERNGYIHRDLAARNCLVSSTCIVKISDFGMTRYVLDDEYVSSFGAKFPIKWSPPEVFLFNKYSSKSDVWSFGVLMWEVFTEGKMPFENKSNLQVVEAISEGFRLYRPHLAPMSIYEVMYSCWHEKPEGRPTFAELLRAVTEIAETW

C=CC(=O)Nc1cc(Nc2cc(-c3cccc(NC(=O)c4cc5c(s4)CCCC5)c3C)cn(C)c2=O)ccc1N1CCN(CC)CC1 [CHMFL-BTK-85]
S Score (1) [1]: 0.00 | effect on antibody-dependent NK-cell-mediated cytotoxicity (ADCC) [2]: did not affect | Percent Control [3]: 85% | Percent Control [4]: 99% | Percent Control [5]: 100% | Percent Control [6]: 100% | Percent Control [7]: 75% | Percent Control [8]: 89% | Percent Control [9]: 100% | Percent Control [10]: 79% | Percent Control [11]: 95% | Percent Control [12]: 82% | kinase binding remaining (percent of control) at 1 µM [13]: 58% | Percent Control [14]: 94% | Percent Control [15]: 67% | Percent Control [16]: 77% | Percent Control [17]: 99% | Percent Control [18]: 100% | Percent Control [19]: 83% | Percent Control [20]: 100% | Percent Control [21]: 100% | Percent Control [22]: 100% | Percent Control [23]: 100% | Percent Control [24]: 96% | Percent Control [25]: 100% | Percent Control [26]: 91% | Percent Control [27]: 99% | Percent Control [28]: 91% | Percent Control [29]: 95% | Percent Control [30]: 100% | Percent Control [31]: 100% | Percent Control [32]: 100% | Percent Control [33]: 100% | Percent Control [34]: 80% | Percent Control [35]: 81% | Percent Control [36]: 77% | Percent Control [37]: 93% | Percent Control [38]: 80% | Percent Control [39]: 100% | Percent Control [40]: 85% | Percent Control [41]: 100% | Percent Control [42]: 92% | Percent Control [43]: 100% | Percent Control [44]: 100% | Percent Control [45]: 90% | Percent Control [46]: 100% | percent of control binding at 1 µM [47]: 82%
